Assay results as given in patent publication US4873245A, “Isolation and structural elucidation of cephalostatins 1-4” (Arizona Board of Regents, priority 1988, dated 1989).
Values after ≈ are worked out from the molar mass of the structure shown. Like-named read-outs stand apart in the source and are kept apart here.

Assays:
[1] = tested on: P388 lymphocytic leukemia cell line; assay: PS in vitro: growth inhibition of P388 lymphocytic leukemia cell line, standard N.C.I. protocol; format: cell-based, murine
Description: Cephalostatin 1 was placed against the P388 lymphocytic leukemia cell line using standard National Cancer Institute ("N.C.I.") protocol with the following results:
Cephalostatin 2 was placed against the P388 lymphocytic leukemia cell line using standard National Cancer Institute ("N.C.I.") protocol with the following results:
Cephalostatin 3 was placed against the P388 lymphocytic leukemia cell line using standard National Cancer Institute ("N.C.I.") protocol with the following results:
Cephalostatin 4 was placed against the P388 lymphocytic leukemia cell line using standard National Cancer Institute ("N.C.I.") protocol with the following results: […]

[2] = tested on: murine P388 lymphocytic leukemia; assay: U.S. National Cancer Institute's murine P388 lymphocytic leukemia (PS system), life extension of host; format: in vivo; details: for activity against murine P388 lymphocytic leukemia (PS system), in words: mouse, in vivo

Row | SMILES | ED50 (PS cell line) [1] | Life Extension ([2]; 40 μg/Kg host body weight) [%] | activity against murine P388 lymphocytic leukemia (PS system), in words [2] | ED50 (PS cell line) ([1]; listed as cephalostatin 4) | Life Extension ([2]; 100 μg/Kg host body weight) [%]
1 | C[C@@H]1[C@]2(O[C@H]3C=C4[C@@H]5CC[C@H]6Cc7nc8c(nc7C[C@]6(C)[C@H]5C[C@@H](O)[C@]4(C)[C@]31O)C[C@@H]1CC[C@H]3C4=CC[C@@H]5[C@H](C)[C@@]6(OC[C@]45C(=O)C[C@]3(O)[C@@]1(C)C8)OC(C)(C)[C@@H](C)[C@H]6O)O[C@](C)(CO)C[C@H]2O [Cephalostatin 3] | 10^-7 to 10^-9 μg/ml | 30 | confirmed active level |  | 
2 | C[C@@H]1[C@]2(O[C@H]3C=C4[C@@H]5CC[C@H]6Cc7nc8c(nc7C[C@]6(C)[C@H]5C[C@@H](O)[C@]4(C)[C@]31O)C[C@@H]1CC[C@H]3C4=CC[C@@H]5[C@H](C)[C@@]6(OC[C@]45C(=O)C[C@@H]3[C@@]1(C)C8)OC(C)(C)C[C@H]6O)O[C@](C)(CO)C[C@H]2O [Cephalostatin 1] | 10^-7 to 10^-9 μg/ml | 31 | confirmed active level |  | 
3 | C[C@@H]1[C@]2(O[C@H]3C=C4[C@@H]5CC[C@H]6Cc7nc8c(nc7C[C@]6(C)[C@H]5C[C@@H](O)[C@]4(C)[C@]31O)C[C@@H]1CC[C@H]3[C@@]45O[C@@H]4C[C@@H]4[C@H](C)[C@@]6(OC[C@@]45C(=O)C[C@]3(O)[C@@]1(C)C8)OC(C)(C)C[C@H]6O)O[C@](C)(CO)C[C@H]2O [Cephalostatin 4] | 0.00055 µg/mL (≈ 0.583 nM) |  | confirmed active level | 10^-7 to 10^-9 μg/ml | 25
4 | C[C@@H]1[C@]2(O[C@H]3C=C4[C@@H]5CC[C@H]6Cc7nc8c(nc7C[C@]6(C)[C@H]5C[C@@H](O)[C@]4(C)[C@]31O)C[C@@H]1CC[C@H]3C4=CC[C@@H]5[C@H](C)[C@@]6(OC[C@]45C(=O)C[C@]3(O)[C@@]1(C)C8)OC(C)(C)C[C@H]6O)O[C@](C)(CO)C[C@H]2O [Cephalostatin 2] | 10^-7 to 10^-9 μg/ml | 35 | confirmed active level |  | 
